Assays:
Hepatitis B virus [1] = experiment: Antiviral activity against telbivudine-resistant hepatitis B virus harboring reverse transcriptase L180M/M204V double mutant infected in human Huh7 cells assessed as reduction in secreted DNA levels measured on day 7 by real-time PCR analysis; type: functional, organism-based; settings: Huh-7, 168 h
Hepatitis B virus [2] = experiment: Antiviral activity against telbivudine-resistant hepatitis B virus harboring reverse transcriptase L180M/M204V double mutant infected in human Huh7 cells assessed as reduction in intracellular DNA levels measured on day 7 by real-time PCR analysis; type: functional, organism-based; settings: Huh-7, 168 h
Hepatitis B virus [3] = experiment: Antiviral activity against telbivudine-resistant wild type hepatitis B virus infected in human Huh7 cells assessed as reduction in secreted DNA levels measured on day 7 by real-time PCR analysis; type: functional, organism-based; settings: Huh-7, 168 h
Hepatitis B virus [4] = experiment: Antiviral activity against telbivudine-resistant hepatitis B virus harboring reverse transcriptase M204I mutant infected in human Huh7 cells assessed as reduction in intracellular DNA levels measured on day 7 by real-time PCR analysis; type: functional, organism-based; settings: Huh-7, 168 h
[5] = Cytotoxicity in human HepG2.215 cells assessed as reduction in cell viability after 5 days by CCK8 assay; type: cell-based, HepG2 2.2.15; settings: HepG2.2.15 cells
Hepatitis B virus [6] = experiment: Antiviral activity against telbivudine-resistant hepatitis B virus harboring reverse transcriptase M204I mutant infected in human Huh7 cells assessed as reduction in secreted DNA levels measured on day 7 by real-time PCR analysis; type: functional, organism-based; settings: Huh-7, 168 h
Hepatitis B virus [7] = experiment: Antiviral activity against entecavir-resistant hepatitis B virus harboring reverse transcriptase M204I/S202G/M250V triple mutant infected in human Huh7 cells assessed as reduction in intracellular DNA levels measured on day 7 by real-time PCR analysis; type: functional, organism-based; settings: Huh-7, 168 h
Hepatitis B virus [8] = experiment: Antiviral activity against entecavir-resistant wild type hepatitis B virus infected in human Huh7 cells assessed as reduction in secreted DNA levels measured on day 7 by real-time PCR analysis; type: functional, organism-based; settings: Huh-7, 168 h
Hepatitis B virus [9] = experiment: Antiviral activity against entecavir-resistant hepatitis B virus harboring reverse transcriptase M204I/S202G/M250V triple mutant infected in human Huh7 cells assessed as reduction in secreted DNA levels measured on day 7 by real-time PCR analysis; type: functional, organism-based; settings: Huh-7, 168 h
Hepatitis B virus [10] = experiment: Antiviral activity against entecavir-resistant wild type hepatitis B virus infected in human Huh7 cells assessed as reduction in intracellular DNA levels measured on day 7 by real-time PCR analysis; type: functional, organism-based; settings: Huh-7, 168 h
Hepatitis B virus [11] = experiment: Antiviral activity against entecavir-resistant hepatitis B virus harboring reverse transcriptase M204I/S202G double mutant infected in human Huh7 cells assessed as reduction in intracellular DNA levels measured on day 7 by real-time PCR analysis; type: functional, organism-based; settings: Huh-7, 168 h
Hepatitis B virus [12] = experiment: Antiviral activity against entecavir-resistant hepatitis B virus harboring reverse transcriptase M204I/S202G double mutant infected in human Huh7 cells assessed as reduction in secreted DNA levels measured on day 7 by real-time PCR analysis; type: functional, organism-based; settings: Huh-7, 168 h

Cc1cn([C@@H]2C[C@@H](O)[C@H](CO)O2)c(=O)[nH]c1=O [TELBIVUDINE]
EC50 (Hepatitis B virus [1]): > 20 µM
EC50 (Hepatitis B virus [2]): > 20 µM
EC50 (Hepatitis B virus [3]): 0.569 µM
EC50 (Hepatitis B virus [4]): > 20 µM
CC50 at 120 h [5]: > 200 µM
EC50 (Hepatitis B virus [6]): > 20 µM

C=C1[C@H](CO)[C@@H](O)C[C@@H]1n1cnc2c(=O)[nH]c(N)nc21
EC50 (Hepatitis B virus [7]): > 20 µM
EC50 (Hepatitis B virus [8]): 0.014 µM
EC50 (Hepatitis B virus [9]): > 20 µM
EC50 (Hepatitis B virus [10]): 0.013 µM
CC50 at 120 h [5]: 30 µM
EC50 (Hepatitis B virus [11]): > 20 µM
EC50 (Hepatitis B virus [12]): > 20 µM

Nc1ncnc2c1ncn2CCOCP(=O)(O)O [ADEFOVIR]
CC50 at 120 h [5]: 200 µM

C[C@H](Cn1cnc2c(N)ncnc21)OCP(=O)(O)O [TENOFOVIR ANHYDROUS]
CC50 at 120 h [5]: 399 µM

— ChEMBL document CHEMBL4177524, “Discovery of hepatitis B virus capsid assembly inhibitors leading to a heteroaryldihydropyrimidine based clinical candidate (GLS4)” (Bioorg Med Chem, 2017)
